Laboratory results as given in ChEMBL document CHEMBL1821563, “The discovery and synthesis of JNJ 31020028, a small molecule antagonist of the Neuropeptide Y Y₂ receptor” (Bioorg Med Chem Lett, 2011).

Key:
[1] = target: T1, Neuropeptide Y receptor type 2 (Homo sapiens, UniProt P49146); assay: Displacement of [125I]PYY from human NPY Y2 receptor expressed endogenously in KAN-Ts cells by scintillation counting; type: cell-based
T1 sequence (P49146 whole entry): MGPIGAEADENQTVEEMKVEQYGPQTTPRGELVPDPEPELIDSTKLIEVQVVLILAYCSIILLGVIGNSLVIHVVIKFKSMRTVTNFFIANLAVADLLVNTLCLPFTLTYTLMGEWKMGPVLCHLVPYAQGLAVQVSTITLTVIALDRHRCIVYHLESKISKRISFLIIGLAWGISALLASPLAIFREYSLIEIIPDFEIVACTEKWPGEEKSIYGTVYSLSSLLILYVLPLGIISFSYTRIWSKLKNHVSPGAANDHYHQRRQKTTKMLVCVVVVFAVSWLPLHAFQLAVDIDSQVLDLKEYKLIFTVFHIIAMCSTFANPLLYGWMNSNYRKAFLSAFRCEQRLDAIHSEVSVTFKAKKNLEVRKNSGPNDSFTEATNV

CYP2C9 = CYP2C9 (Homo sapiens, UniProt P11712); assay: Inhibition of CYP2C9 at 10 uM; type: ADME
CYP2D6 = CYP2D6 (Homo sapiens, UniProt P10635); assay: Inhibition of CYP2D6 at 10 uM; type: ADME
CYP2D6, sequence (P10635 whole entry): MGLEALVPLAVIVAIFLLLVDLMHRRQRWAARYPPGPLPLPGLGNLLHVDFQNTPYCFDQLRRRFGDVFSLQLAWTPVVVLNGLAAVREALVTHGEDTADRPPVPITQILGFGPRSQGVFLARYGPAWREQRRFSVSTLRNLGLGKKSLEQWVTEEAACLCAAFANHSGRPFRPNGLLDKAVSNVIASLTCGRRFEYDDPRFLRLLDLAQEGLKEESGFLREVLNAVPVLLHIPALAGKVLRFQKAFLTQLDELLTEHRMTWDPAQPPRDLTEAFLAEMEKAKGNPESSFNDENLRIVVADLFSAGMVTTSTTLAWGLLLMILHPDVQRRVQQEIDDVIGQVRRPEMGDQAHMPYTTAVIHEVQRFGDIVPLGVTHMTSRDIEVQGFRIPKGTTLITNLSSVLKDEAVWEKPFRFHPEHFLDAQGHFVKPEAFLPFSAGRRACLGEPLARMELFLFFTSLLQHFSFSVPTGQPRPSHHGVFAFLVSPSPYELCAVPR

CYP2C9, sequence (P11712 whole entry): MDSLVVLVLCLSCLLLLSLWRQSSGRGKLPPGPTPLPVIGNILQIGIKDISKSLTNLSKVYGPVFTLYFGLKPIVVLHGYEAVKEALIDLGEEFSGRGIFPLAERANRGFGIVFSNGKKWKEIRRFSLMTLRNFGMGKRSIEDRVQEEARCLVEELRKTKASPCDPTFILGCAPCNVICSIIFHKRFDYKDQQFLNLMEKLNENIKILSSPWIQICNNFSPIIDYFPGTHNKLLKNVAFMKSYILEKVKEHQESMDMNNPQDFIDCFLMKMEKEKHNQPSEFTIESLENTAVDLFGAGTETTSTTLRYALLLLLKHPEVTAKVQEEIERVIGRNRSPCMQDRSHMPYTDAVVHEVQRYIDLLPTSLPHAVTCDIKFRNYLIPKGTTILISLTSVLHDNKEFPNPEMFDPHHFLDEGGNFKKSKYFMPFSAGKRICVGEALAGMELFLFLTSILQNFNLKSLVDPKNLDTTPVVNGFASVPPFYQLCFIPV

For `COC(=O)C(c1ccccc1)N1CCN(c2ccc(NC(=O)c3ccccc3-c3ccccc3)cc2C#N)CC1` (stereo not drawn), which IC50 [1] is on record?
Its IC50 is 25 nM.

With `CCN(CC)C(=O)C(c1ccccc1)N1CCN(c2ccc(NC(=O)c3ccccc3-c3cccnc3)cc2F)CC1` (racemic) as the compound, how does the IC50 [1] read?
The IC50 was 6 nM.

`CCN(CC)C(=O)C(c1ccccc1)N1CCN(c2ccc(NC(=O)c3ccccc3-c3ccccc3)cc2C#N)CC1` (racemic; 30) was tested. Which IC50 [1] did it give?
Its IC50 is 8 nM.

Which IC50 [1] does the source give for `CCNC(=O)C(c1ccccc1)N1CCN(c2ccc(NC(=O)C(CC)CC)cc2F)CC1` (stereo not drawn) here?
Its IC50 is 370 nM.

For `CCNC(=O)C(c1ccccc1)N1CCN(c2ccc(NC(=O)c3ccccc3-c3ccccc3)cc2F)CC1` (stereo not drawn), which IC50 [1] is on record?
Its IC50 is 35 nM.

`CCN(CC)C(=O)[C@H](c1ccccc1)N1CCN(c2ccc(NC(=O)c3ccccc3-c3cccnc3)cc2F)CC1` was tested. Which IC50 [1] did it give?
Its IC50 is 14 nM.

With `CCNC(=O)C(c1ccccc1)N1CCN(c2ccc(NC(=O)C(CC)CC)cc2C#N)CC1` (stereo not drawn) as the compound, how does the IC50 [1] read?
Its IC50 is 150 nM.

`COC(=O)C(c1ccccc1)N1CCN(c2ccc(NC(=O)c3ccccc3-c3ccccc3)cc2F)CC1` (stereo not drawn) was tested. Which IC50 [1] did it give?
Its IC50 is 52 nM.

With `CCNC(=O)C(c1ccccc1)N1CCN(c2ccc(NC(=O)c3ccccc3-c3cccnc3)cc2C#N)CC1` (stereo not drawn) as the compound, how does the IC50 [1] read?
Its IC50 is 30 nM.

With `CCN(CC)C(=O)[C@@H](c1ccccc1)N1CCN(c2ccc(NC(=O)c3ccccc3-c3cccnc3)cc2F)CC1` as the compound, how does the IC50 [1] read?
The IC50 was 9 nM.

For `COC(=O)C(c1ccccc1)N1CCN(c2ccc(NC(=O)c3ccccc3-c3ccncc3)cc2)CC1` (stereo not drawn), which IC50 [1] is on record?
The IC50 was 240 nM.

How did the IC50 [1] turn out when `CCC(CC)C(=O)Nc1ccc(N2CCN(C(C(=O)N(CC)CC)c3ccccc3)CC2)c(F)c1` (racemic) was run?
The IC50 was 50 nM.

`CCC(CC)C(=O)Nc1ccc(N2CCN(C(C(=O)N(CC)CC)c3ccccc3)CC2)c(C#N)c1` (racemic; 34) was tested. Which inhibition at 10 µM (CYP2C9) did it give?
The inhibition at 10 µM was greater than 75%.

And the inhibition at 10 µM (CYP2D6)?
The inhibition at 10 µM was greater than 75%.

What about the IC50 [1] of the same compound?
The IC50 was 13 nM.

Which IC50 [1] does the source give for `COC(=O)C(c1ccccc1)N1CCN(c2ccc(NC(=O)c3ccccc3-c3ccccc3)cc2C)CC1` (stereo not drawn) here?
Its IC50 is 100 nM.

How did the IC50 [1] turn out when `CCOc1ccc(NC(=S)N2CCC(C(O)(c3ccccc3)c3ccccc3)CC2)cc1` was run?
Its IC50 is 200 nM.

How did the IC50 [1] turn out when `COC(=O)C(c1ccccc1)N1CCN(c2ccc(NC(=O)c3ccccc3-c3ccncc3)cc2F)CC1` (stereo not drawn) was run?
Its IC50 is 37 nM.

How did the IC50 [1] turn out when `CCNC(=O)C(c1ccccc1)N1CCN(c2ccc(NC(=O)c3ccccc3-c3ccccc3)cc2C#N)CC1` (stereo not drawn) was run?
Its IC50 is 11 nM.

`COc1cccnc1C(=O)N1CCN(c2ccc(NC(C)(C)c3ccccc3)cc2Cl)CC1` was tested. Which IC50 [1] did it give?
Its IC50 is 25 nM.

For `COC(=O)C(c1ccccc1)N1CCN(c2ccc(NC(=O)c3ccccc3-c3cccnc3)cc2)CC1` (stereo not drawn), which IC50 [1] is on record?
The IC50 was 220 nM.

Which IC50 [1] does the source give for `CCNC(=O)C(c1ccccc1)N1CCN(c2ccc(NC(=O)c3ccccc3-c3cccnc3)cc2F)CC1` (stereo not drawn) here?
Its IC50 is 42 nM.

How did the IC50 [1] turn out when `CCC(CC)C(=O)Nc1ccc(N2CCN(C(C(=O)N(CC)CC)c3ccccc3)CC2)c(C#N)c1` (racemic; 32) was run?
Its IC50 is 200 nM.

`CCN(CC)C(=O)C(c1ccccc1)N1CCN(c2ccc(NC(=O)c3ccccc3-c3ccccc3)cc2C#N)CC1` (racemic; 28) was tested. Which IC50 [1] did it give?
The IC50 was 37 nM.

For `CCN(CC)C(=O)C(c1ccccc1)N1CCN(c2ccc(NC(=O)c3ccccc3-c3ccccc3)cc2F)CC1` (racemic), which IC50 [1] is on record?
The IC50 was 10 nM.

For `CCC(CC)C(=O)Nc1ccc(N2CCN(C(C(=O)OC)c3ccccc3)CC2)c(F)c1` (stereo not drawn), which IC50 [1] is on record?
The IC50 was 165 nM.

With `COC(=O)C(c1ccccc1)N1CCN(c2ccc(NC(=O)c3ccccc3-c3ccccc3)cc2)CC1` (stereo not drawn) as the compound, how does the IC50 [1] read?
The IC50 was 530 nM.

`COC(=O)C(c1ccccc1)N1CCN(c2ccc(NC(=O)c3ccccc3-c3cccnc3)cc2F)CC1` (stereo not drawn) was tested. Which IC50 [1] did it give?
The IC50 was 40 nM.
